In the experiment the target is T1, human recombinant HDAC6 (Homo sapiens, UniProt Q9UBN7).
T1 construct: purchased Calbiochem 382180
T1 sequence (Q9UBN7 1-1215): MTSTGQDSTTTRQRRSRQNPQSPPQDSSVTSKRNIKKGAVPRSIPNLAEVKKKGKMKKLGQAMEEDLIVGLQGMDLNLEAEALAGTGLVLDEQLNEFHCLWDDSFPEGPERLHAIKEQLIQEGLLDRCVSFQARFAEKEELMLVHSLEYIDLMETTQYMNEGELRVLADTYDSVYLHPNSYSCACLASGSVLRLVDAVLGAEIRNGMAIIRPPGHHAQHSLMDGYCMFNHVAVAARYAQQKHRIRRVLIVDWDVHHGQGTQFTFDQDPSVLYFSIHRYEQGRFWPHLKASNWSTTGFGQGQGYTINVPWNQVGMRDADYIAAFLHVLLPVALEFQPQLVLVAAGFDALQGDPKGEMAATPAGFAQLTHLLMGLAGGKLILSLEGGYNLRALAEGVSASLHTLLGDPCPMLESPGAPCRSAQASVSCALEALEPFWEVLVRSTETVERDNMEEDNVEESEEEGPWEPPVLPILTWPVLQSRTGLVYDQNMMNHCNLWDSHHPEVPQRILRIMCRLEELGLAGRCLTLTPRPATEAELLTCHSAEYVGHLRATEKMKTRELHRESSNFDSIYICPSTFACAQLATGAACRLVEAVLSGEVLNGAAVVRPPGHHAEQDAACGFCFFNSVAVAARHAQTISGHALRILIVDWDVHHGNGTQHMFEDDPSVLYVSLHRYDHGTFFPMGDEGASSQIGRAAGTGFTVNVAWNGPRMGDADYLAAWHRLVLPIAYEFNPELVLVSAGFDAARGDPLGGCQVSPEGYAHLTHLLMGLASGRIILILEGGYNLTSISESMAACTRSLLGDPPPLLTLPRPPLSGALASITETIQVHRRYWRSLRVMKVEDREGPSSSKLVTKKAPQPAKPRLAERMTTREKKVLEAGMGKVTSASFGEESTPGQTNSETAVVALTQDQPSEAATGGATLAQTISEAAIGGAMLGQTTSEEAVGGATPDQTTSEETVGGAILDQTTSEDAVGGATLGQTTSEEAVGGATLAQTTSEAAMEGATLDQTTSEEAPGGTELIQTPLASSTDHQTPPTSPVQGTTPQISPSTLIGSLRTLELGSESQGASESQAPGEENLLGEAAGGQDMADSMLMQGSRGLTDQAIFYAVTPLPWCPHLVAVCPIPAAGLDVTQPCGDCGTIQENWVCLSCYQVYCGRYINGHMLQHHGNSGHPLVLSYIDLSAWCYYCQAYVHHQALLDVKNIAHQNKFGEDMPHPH
The experiment in a line: HDAC6 enzyme activity inhibition assay (HDAC Fluorimetric Drug Discovery Kit). It is filed as biochemical. To be noted: for HDAC6 selectivity (fold): HDAC1 vs HDAC6; for IC50: same protocol as the HDAC1 enzyme activity test. The method in brief:
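Recombinant enzyme (0.3 μg) was incubated with 5-fold serially diluted compound and 10 μM Fluor de Lys-SIRT1 substrate for 60 min at 30° C. Developer II was then added for 30 min, fluorescence read at Ex 360/Em 460, and IC50 values were calculated.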

Take `O=S(=O)(CCN1CCN(CCc2ccncc2)CC1)N(Cc1ccc(-c2nnc(C(F)F)o2)cc1)c1ccccc1` [Compound 11772, N-(4-(5-(difluoromethyl)-1,3,4-oxadiazol-2-yl)benzyl)-N-phenyl-2-(4-(2-(pyridin-4-yl)ethyl)piperazin-1-yl)ethane-1-sulfonamide]: the “HDAC6 selectivity (fold)” value is 2057 fold and the half-maximal inhibitory concentration (IC50) worked out at 48.6 nM.
For `CS(=O)(=O)N(Cc1ccc(-c2nnc(C(F)(F)F)o2)cc1F)c1cncnc1` [Compound 11194, N-(2-fluoro-4-(5-(trifluoromethyl)-1,3,4-oxadiazol-2-yl)benzyl)-N-(pyrimidin-5-yl)methanesulfonamide], the “HDAC6 selectivity (fold)” value was 1538 fold and the IC50 was 65 nM.
The like results for `O=S(=O)(c1cccnc1)N(Cc1ccc(-c2nnc(C(F)F)o2)cc1F)c1ccccc1` [Compound 11252, N-(4-(5-(difluoromethyl)-1,3,4-oxadiazol-2-yl)-2-fluorobenzyl)-N-phenylpyridine-3-sulfonamide] were, in that order, 2564 fold and 39 nM.
On to `O=S(=O)(CCCN1CCCC1)N(Cc1ccc(-c2nnc(C(F)F)o2)cn1)c1ccc(F)c(Cl)c1` [Compound 11721, N-(3-chloro-4-fluorophenyl)-N-((5-(5-(difluoromethyl)-1,3,4-oxadiazol-2-yl)pyridin-2-yl)methyl)-3-(pyrrolidin-1-yl)propane-1-sulfonamide], for which the “HDAC6 selectivity (fold)” value was 4739 fold and the IC50 was 21.1 nM.
Taken in the same sequence, the figures for `O=S(=O)(C1CCN(C2CC(F)C2)CC1)N(Cc1ccc(-c2nnc(C(F)F)o2)cn1)c1cccc(Cl)c1` (stereo not drawn) [Compound 11841, N-(3-chlorophenyl)-N-((5-(5-(difluoromethyl)-1,3,4-oxadiazol-2-yl)pyridin-2-yl)methyl)-1-(3-fluorocyclobutyl)piperidine-4-sulfonamide] were 2790 fold and 35.8 nM.
Turning to `O=S(=O)(C1CCN([C@H]2CC[C@H](F)CC2)CC1)N(Cc1ccc(-c2nnc(C(F)F)o2)cc1)c1cccc(Cl)c1` [Compound 11725, N-(3-chlorophenyl)-N-(4-(5-(difluoromethyl)-1,3,4-oxadiazol-2-yl)benzyl)-1-((1r,4r)-4-fluorocyclohexyl)piperidine-4-sulfonamide], the “HDAC6 selectivity (fold)” value is listed as 412 fold and the IC50 amounted to 243 nM.
In the case of `COC(=O)C1CN(CCS(=O)(=O)N(Cc2ccc(-c3nnc(C(F)F)o3)cc2)c2ccccc2)C1` [Compound 11820, methyl 1-(2-(N-(4-(5-(difluoromethyl)-1,3,4-oxadiazol-2-yl)benzyl)-N-phenylsulfamoyl)ethyl)azetidine-3-carboxylate], the “HDAC6 selectivity (fold)” value was 1652 fold and the IC50 was determined as 60.5 nM.
`CC(C)(C)OC(=O)N(C(=O)C(F)F)C1CCN(CCS(=O)(=O)N(Cc2ccc(-c3nnc(C(F)F)o3)cc2)c2ccccc2)CC1` [Compound 11677, tert-butyl 2,2-difluoroacetyl(1-(2-(N-(4-(5-(difluoromethyl)-1,3,4-oxadiazol-2-yl)benzyl)-N-phenylsulfamoyl)ethyl)piperidin-4-yl)carbamate]: the “HDAC6 selectivity (fold)” value is on record as 1754 fold and the IC50 turned out to be 57 nM.
On to `CCS(=O)(=O)N(Cc1ccc(-c2nnc(C(F)(F)F)o2)cc1F)c1ccccc1` [Compound 11153, N-(2-fluoro-4-(5-(trifluoromethyl)-1,3,4-oxadiazol-2-yl)benzyl)-N-phenylethanesulfonamide], for which the “HDAC6 selectivity (fold)” value stood at 793 fold and the half-maximal inhibitory concentration (IC50) stood at 126 nM.
The like results for `CCS(=O)(=O)N(Cc1ccc(-c2nnc(C(F)F)o2)cn1)c1ccc(CN2CCN(S(C)(=O)=O)CC2)cc1` [Compound 11387, N-((5-(5-(difluoromethyl)-1,3,4-oxadiazol-2-yl)pyridin-2-yl)methyl)-N-(4-((4-(methylsulfonyl)piperazin-1-yl)methyl)phenyl)ethanesulfonamide] were, in that order, 1087 fold and 92 nM.
The like results for `CS(=O)(=O)N(Cc1ccc(-c2nnc(C(F)F)o2)nn1)c1ccccc1` [Compound 11566, N-((6-(5-(difluoromethyl)-1,3,4-oxadiazol-2-yl)pyridazin-3-yl)methyl)-N-phenylmethanesulfonamide] were, in that order, 1124 fold and 89 nM.
Taken in the same sequence, the figures for `CS(=O)(=O)N(Cc1ccc(-c2nnc(C(F)F)o2)cc1F)C1CCCCC1` [Compound 11292, N-cyclohexyl-N-(4-(5-(difluoromethyl)-1,3,4-oxadiazol-2-yl)-2-fluorobenzyl)methanesulfonamide] were 1786 fold and 56 nM.
For the compound `O=S(=O)(CCN1CC(F)(F)C1)N(Cc1ccc(-c2nnc(C(F)F)o2)cc1)c1ccccc1` [Compound 11821, 2-(3,3-difluoroazetidin-1-yl)-N-(4-(5-(difluoromethyl)-1,3,4-oxadiazol-2-yl)benzyl)-N-phenylethane-1-sulfonamide], the “HDAC6 selectivity (fold)” value amounted to 747 fold and the IC50 amounted to 134 nM.
Turning to `CCC(C)S(=O)(=O)N(Cc1ccc(-c2nnc(C(F)F)o2)cc1F)c1ccccc1` (stereo not drawn) [Compound 11230, N-(4-(5-(difluoromethyl)-1,3,4-oxadiazol-2-yl)-2-fluorobenzyl)-N-phenylbutane-2-sulfonamide], the “HDAC6 selectivity (fold)” value came to 3030 fold and the IC50 stood at 33 nM.
The like results for `CCS(=O)(=O)N(Cc1ccc(-c2nnc(C(F)F)o2)cn1)c1ccc(CN2CCN(C(C)=O)CC2)cc1` [Compound 11386, N-(4-((4-acetylpiperazin-1-yl)methyl)phenyl)-N-((5-(5-(difluoromethyl)-1,3,4-oxadiazol-2-yl)pyridin-2-yl)methyl)ethanesulfonamide] were, in that order, 1316 fold and 76 nM.
With `CC(=O)N1CCN(CCS(=O)(=O)N(Cc2ccc(-c3nnc(C(F)F)o3)cc2)c2ccccc2)CC1` [Compound 11633, 2-(4-acetylpiperazin-1-yl)-N-(4-(5-(difluoromethyl)-1,3,4-oxadiazol-2-yl)benzyl)-N-phenylethane-1-sulfonamide], the “HDAC6 selectivity (fold)” value is 2173 fold and the IC50 is 46 nM.
Turning to `O=S(=O)(CCN1CCN(C2COC2)CC1)N(Cc1ccc(-c2nnc(C(F)F)o2)cc1F)c1ccc(F)c(Cl)c1` [Compound 11583, N-(3-chloro-4-fluorophenyl)-N-(4-(5-(difluoromethyl)-1,3,4-oxadiazol-2-yl)-2-fluorobenzyl)-2-(4-(oxetan-3-yl)piperazin-1-yl)ethane-1-sulfonamide], the “HDAC6 selectivity (fold)” value is reported as 4348 fold and the IC50 was 23 nM.
Take `O=S(=O)(CCN1CCC(CO)CC1)N(Cc1ccc(-c2nnc(C(F)F)o2)cc1)c1ccccc1` [Compound 11810, N-(4-(5-(difluoromethyl)-1,3,4-oxadiazol-2-yl)benzyl)-2-(4-(hydroxymethyl)piperidin-1-yl)-N-phenylethane-1-sulfonamide]: the “HDAC6 selectivity (fold)” value came to 2793 fold and the IC50 was determined as 35.8 nM.
The like results for `O=S(=O)(CCN1CC[C@@H](F)C1)N(Cc1ccc(-c2nnc(C(F)F)o2)cc1)c1ccccc1` [Compound 11753, (R)—N-(4-(5-(difluoromethyl)-1,3,4-oxadiazol-2-yl)benzyl)-2-(3-fluoropyrrolidin-1-yl)-N-phenylethane-1-sulfonamide] were, in that order, 953 fold and 105 nM.
On to `O=S(=O)(CCN1CCC[C@H](O)C1)N(Cc1ccc(-c2nnc(C(F)F)o2)cc1)c1ccccc1` [Compound 11817, (S)—N-(4-(5-(difluoromethyl)-1,3,4-oxadiazol-2-yl)benzyl)-2-(3-hydroxypiperidin-1-yl)-N-phenylethane-1-sulfonamide], for which the “HDAC6 selectivity (fold)” value is listed as 1718 fold and the concentration for half-maximal inhibition (IC50) was 58.2 nM.
Taken in the same sequence, the figures for `COCC(C)N1CCC(S(=O)(=O)N(Cc2ccc(-c3nnc(C(F)F)o3)cn2)c2ccccc2)CC1` (stereo not drawn) [Compound 11790, N-((5-(5-(difluoromethyl)-1,3,4-oxadiazol-2-yl)pyridin-2-yl)methyl)-1-(1-methoxypropan-2-yl)-N-phenylpiperidine-4-sulfonamide] were 2227 fold and 44.6 nM.

What is called IC50 is the concentration that inhibits the measured activity by half.

Values taken from patent US10538498B2, “1,3,4-oxadiazole sulfonamide derivative compounds as histone deacetylase 6 inhibitor, and the pharmaceutical composition comprising the same” (Chong Kun Dang Pharmaceutical Corp., priority 2015, dated 2020).
